The nature of assay [1]: Inhibition of TNFalpha-induced NF-kappaB activation in human HIV-1-LTR-luc 5.1 cells treated 30 mins before TNFalpha challenge measured after 6 hrs.
Assay [2] concerns the target Signal transducer and activator of transcription 3 (Homo sapiens, UniProt P40763). Kind of assay: Inhibition of IFNgamma-induced STAT3 activation in human HeLa cells expressing p4xM67-tk-Luc treated 30 mins before […] challenge measured after 6 hrs. The class given is cell-based.

From ChEMBL document CHEMBL2021891, “STAT-3 inhibitory bisabolanes from Carthamus glaucus” (J Nat Prod, 2012) come the findings set out here.

The term IC50 denotes the concentration at which inhibition is half-maximal. A high value points to a need for much substance.

Signal transducer and activator of transcription 3, sequence (P40763 whole entry): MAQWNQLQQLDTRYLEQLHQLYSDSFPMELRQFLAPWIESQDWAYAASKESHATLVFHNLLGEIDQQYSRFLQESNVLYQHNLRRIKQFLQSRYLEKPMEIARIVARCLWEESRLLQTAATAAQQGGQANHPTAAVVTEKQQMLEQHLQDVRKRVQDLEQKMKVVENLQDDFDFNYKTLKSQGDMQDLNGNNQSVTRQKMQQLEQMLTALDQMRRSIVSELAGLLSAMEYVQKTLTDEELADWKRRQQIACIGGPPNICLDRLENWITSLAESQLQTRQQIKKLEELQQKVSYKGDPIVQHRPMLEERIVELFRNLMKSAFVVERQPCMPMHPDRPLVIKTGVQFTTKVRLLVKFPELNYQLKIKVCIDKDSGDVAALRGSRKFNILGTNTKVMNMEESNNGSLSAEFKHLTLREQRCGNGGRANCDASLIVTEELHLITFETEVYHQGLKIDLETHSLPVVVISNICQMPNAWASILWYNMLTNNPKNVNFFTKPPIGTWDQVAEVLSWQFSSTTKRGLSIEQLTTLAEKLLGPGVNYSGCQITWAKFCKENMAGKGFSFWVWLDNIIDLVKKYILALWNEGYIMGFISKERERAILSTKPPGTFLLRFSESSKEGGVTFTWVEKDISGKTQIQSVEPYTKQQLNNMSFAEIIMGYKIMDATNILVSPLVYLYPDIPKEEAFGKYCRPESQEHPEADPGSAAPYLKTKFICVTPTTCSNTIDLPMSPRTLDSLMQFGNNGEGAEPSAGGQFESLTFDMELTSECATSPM

As to `CC(C)=CCC[C@](C)(O[C@@H]1O[C@H](C)[C@H](O)[C@H](OC(=O)C=C(C)C)[C@H]1O)[C@@H]1CC=C(C)CC1` (relative stereo), the IC50 is 60 µM in assay [1] and 110 µM in assay [2].

As for `CC(C)=CCC[C@](C)(O)[C@@H]1CC=C(C)CC1` (relative stereo) [LEVOMENOL], the results for the IC50 in assay [1] and in assay [2] were over 220 µM and 73 µM, respectively.

Consider `CC(C)=CCC[C@](C)(O[C@@H]1O[C@H](C)[C@H](O)[C@H](O)[C@H]1O)[C@@H]1CC=C(C)CC1` (relative stereo), for which the IC50 in assay [1] stood at 110 µM; in assay [2], 6.3 µM.
